BigSolDB 2.1

O=c1[nH]cc(F)c(=O)[nH]1
Settings	solubility (mole fraction)
in 1,4-dioxane, 290.2 K	0.00112
in 1,4-dioxane, 291.3 K	0.00123
in 1,4-dioxane, 300.9 K	0.00158
in 1,4-dioxane, 305.2 K	0.00176
in 1,4-dioxane, 306.4 K	0.00187
in 1,4-dioxane, 310.4 K	0.00205
in 1,4-dioxane, 313.3 K	0.00218
in 1,4-dioxane, 313.9 K	0.00225
in 1,4-dioxane, 318 K	0.00247
in 1,4-dioxane, 319.5 K	0.00258
in 1,4-dioxane, 322.8 K	0.00284
in 1,4-dioxane, 329.8 K	0.00332
in THF, 279.6 K	0.00246
in THF, 287 K	0.00273
in THF, 293.2 K	0.00289
in THF, 303.8 K	0.00328
in THF, 308.7 K	0.00349
in THF, 314.6 K	0.00367
in THF, 325.2 K	0.00418
in THF, 328.6 K	0.00454
in acetone, 282.9 K	0.00152
in acetone, 290.2 K	0.00175
in acetone, 298.4 K	0.00199
in acetone, 302.5 K	0.00219
in acetone, 305.1 K	0.00229
in acetone, 307.4 K	0.00244
in acetone, 315.2 K	0.0028
in acetone, 316.9 K	0.00299
in acetone, 322.4 K	0.00304
in acetonitrile, 290.3 K	0.00046
in acetonitrile, 294.6 K	0.00053
in acetonitrile, 299.1 K	0.00062
in acetonitrile, 300.3 K	0.00066
in acetonitrile, 306.6 K	0.00081
in acetonitrile, 307.6 K	0.00083
in acetonitrile, 316 K	0.00102
in acetonitrile, 320.2 K	0.00121
in acetonitrile, 329 K	0.00143
in acetonitrile, 332.3 K	0.00162
in ethanol, 281.1 K	0.00099
in ethanol, 286.9 K	0.00124
in ethanol, 291.2 K	0.00137
in ethanol, 297.7 K	0.00167
in ethanol, 306.2 K	0.00206
in ethanol, 309.1 K	0.00216
in ethanol, 314.8 K	0.0026
in ethanol, 315.1 K	0.00267
in ethanol, 322.8 K	0.0032
in ethanol, 323.7 K	0.00329
in ethanol, 325.6 K	0.00366
in ethanol, 329.9 K	0.00399
in ethyl acetate, 291.1 K	0.00041
in ethyl acetate, 297 K	0.00048
in ethyl acetate, 300.6 K	0.00054
in ethyl acetate, 310.8 K	0.00063
in ethyl acetate, 320.3 K	0.00077
in ethyl acetate, 330.6 K	0.00099
in isopropanol, 282.1 K	0.00085
in isopropanol, 284.6 K	0.00089
in isopropanol, 286.8 K	0.00102
in isopropanol, 294.9 K	0.00119
in isopropanol, 301.3 K	0.00147
in isopropanol, 302.4 K	0.00163
in isopropanol, 308 K	0.00188
in isopropanol, 311.6 K	0.00217
in isopropanol, 316.2 K	0.00237
in isopropanol, 318 K	0.00258
in isopropanol, 323 K	0.00301
in isopropanol, 327.5 K	0.00346
in isopropanol, 330 K	0.00381
in methanol, 280 K	0.00165
in methanol, 287.7 K	0.00216
in methanol, 295.8 K	0.00289
in methanol, 306.8 K	0.00379
in methanol, 318.4 K	0.00502
in methanol, 326 K	0.00581
in methanol, 328.8 K	0.00661
in n-butanol, 280.1 K	0.00058
in n-butanol, 283 K	0.00059
in n-butanol, 287.8 K	0.00086
in n-butanol, 299.5 K	0.00103
in n-butanol, 303.4 K	0.00121
in n-butanol, 306.3 K	0.00141
in n-butanol, 314.8 K	0.00182
in n-butanol, 325.8 K	0.0026
in n-butanol, 327 K	0.00267
in n-butanol, 331.5 K	0.00313
in n-propanol, 280.8 K	0.00082
in n-propanol, 282.4 K	0.00089
in n-propanol, 291.2 K	0.00098
in n-propanol, 294.5 K	0.00108
in n-propanol, 298.4 K	0.00121
in n-propanol, 302.2 K	0.00123
in n-propanol, 308.6 K	0.00149
in n-propanol, 313 K	0.00172
in n-propanol, 315.1 K	0.00179
in n-propanol, 318.3 K	0.00208
in n-propanol, 322.3 K	0.00224
in n-propanol, 324.3 K	0.00245
in n-propanol, 326.2 K	0.00263
in water, 280.1 K	0.00091
in water, 282.5 K	0.00093
in water, 290.8 K	0.00124
in water, 294.5 K	0.00147
in water, 304.4 K	0.0021
in water, 312.1 K	0.00288
in water, 317.5 K	0.00337
in water, 323 K	0.00402
